Experimental data published in patent US20260199484A1, “PROTAC DEGRADERS OF MLLT1 AND/OR MLLT3” (DARK BLUE THERAPEUTICS LTD, priority 2024, published 2026).
Blank lines part the entries; values can stand above or below the molecule they belong to.

Molecular target: T1, MLLT1 (Homo sapiens, UniProt Q03111)
T1 sequence (Q03111 1-559): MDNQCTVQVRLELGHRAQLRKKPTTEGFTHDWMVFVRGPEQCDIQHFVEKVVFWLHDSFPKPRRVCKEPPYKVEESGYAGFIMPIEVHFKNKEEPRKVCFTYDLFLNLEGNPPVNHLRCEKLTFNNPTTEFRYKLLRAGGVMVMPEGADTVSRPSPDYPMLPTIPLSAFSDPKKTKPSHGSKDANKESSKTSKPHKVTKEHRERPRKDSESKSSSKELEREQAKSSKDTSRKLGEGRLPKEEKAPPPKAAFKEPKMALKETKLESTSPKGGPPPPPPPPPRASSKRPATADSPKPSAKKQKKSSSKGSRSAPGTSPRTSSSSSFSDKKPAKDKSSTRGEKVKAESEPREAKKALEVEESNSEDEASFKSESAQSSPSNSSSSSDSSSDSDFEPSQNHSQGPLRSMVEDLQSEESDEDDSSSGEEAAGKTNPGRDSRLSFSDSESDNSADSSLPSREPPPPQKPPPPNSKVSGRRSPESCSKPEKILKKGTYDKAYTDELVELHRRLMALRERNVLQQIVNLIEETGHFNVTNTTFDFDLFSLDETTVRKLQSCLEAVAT
Test: MLLT1 degradation assay in MV4-11 cells (JESS, 24 h)
Assay type: cell-based
Design: endogenous in cells; host or cells: MV4-11 (ATCC CRL-9591)
Details: vs DMSO control
Description: MLLT1 degradation efficacy of compounds was tested in an automated chemiluminescent detection system (JESS, Cat #004-650). MV4-11 (#CRL-9591, ATCC) cells were seeded at a density of 1.2 million cells/well in a non-treated 6-well cell culture plate in 2.4 mL of complete medium (IMDM+10% FBS+1× Penicillin-Streptomycin). 10 mM DMSO stocks were prepared, and cells were treated with three concentrations of test compounds viz. 1000, 100 and 10 nM at a final DMSO concentration of 0.1% and incubated for 24 h at 37° C., 5% CO2. Post incubation, cells were centrifuged, washed with HBSS and lysed in 70 μL of RIPA buffer supplemented with Protease inhibitors (sc-24948; Santa Cruz). Subsequently, protein estimation was done using BCA protein assay kit (23225; Pierce). 4 ug protein lysate (4 uL of 1 ug/uL lysate) was loaded into each well of the JESS cartridge (SM-W001; Bio-techne) and the JESS run was performed using 1:900 dilution of anti-human MLLT1 antibody (14893; Cell signaling technology) and 1:1200 dilution of anti-human GAPDH antibody (2118; Cell signaling technology) with anti-rabbit secondary detection module (DM-001; Bio-Techne). Post run, data were analysed using “Compass for SW” software for chemiluminescent detection. The peak area for each band was used for the calculation of MLLT1 degradation with respect to DMSO control. Data is shown as “MLLT1% degradation”. • Category A: A≥75% degradation • Category B: 50%≤B<75% degradation • Category C: 25%≤C<50% degradation • Category D: D<25% degradation

SMILES: Cc1c(C#CCCCCCn2nc(C)c3ccc(C(=O)Nc4cc5[nH]c([C@H]6CCCN6C)cc5cn4)cc32)cccc1C(=O)NC1CCC(=O)NC1=O (stereo partly drawn) [Example 35, 1-(7-(3-((2,6-dioxopiperidin-3-yl)carbamoyl)-2-methylphenyl)hept-6-yn-1-yl)-3-methyl-N-(2-((R)-1-methylpyrrolidin-2-yl)-1H-pyrrolo[3,2-c]pyridin-6-yl)-1H-indazole-6-carboxamide]
MLLT1% Degradation @ 0.01 μM: C (Category C: 25%≤C<50% degradation)
MLLT1% Degradation @ 0.1 μM: D (Category D: D<25% degradation)
MLLT1% Degradation @ 1 μM: B (Category B: 50%≤B<75% degradation)

SMILES: Cc1nn(CCCCCCCC#Cc2ccc(C(=O)N[C@H]3CCC(=O)NC3=O)nc2)c2cc(C(=O)Nc3cc4[nH]c([C@H]5CCCN5C)cc4cn3)ccc12 [Example 41, 1-(9-(6-(((S)-2,6-dioxopiperidin-3-yl)carbamoyl)pyridin-3-yl)non-8-yn-1-yl)-3-methyl-N-(2-((R)-1-methylpyrrolidin-2-yl)-1H-pyrrolo[3,2-c]pyridin-6-yl)-1H-indazole-6-carboxamide]
MLLT1% Degradation @ 0.01 μM: D (Category D: D<25% degradation)
MLLT1% Degradation @ 0.1 μM: C (Category C: 25%≤C<50% degradation)
MLLT1% Degradation @ 1 μM: B (Category B: 50%≤B<75% degradation)

SMILES: Cc1nn(CCCCCCCC#Cc2ccnc(C(=O)N[C@H]3CCC(=O)NC3=O)c2)c2cc(C(=O)Nc3cc4[nH]c([C@H]5CCCN5C)cc4cn3)ccc12 [Example 43, 1-(9-(2-(((S)-2,6-dioxopiperidin-3-yl)carbamoyl)pyridin-4-yl)non-8-yn-1-yl)-3-methyl-N-(2-((R)-1-methylpyrrolidin-2-yl)-1H-pyrrolo[3,2-c]pyridin-6-yl)-1H-indazole-6-carboxamide]
MLLT1% Degradation @ 0.01 μM: C (Category C: 25%≤C<50% degradation)
MLLT1% Degradation @ 0.1 μM: B (Category B: 50%≤B<75% degradation)
MLLT1% Degradation @ 1 μM: A (Category A: A≥75% degradation)

SMILES: Cc1nn(CCCCCCCC#Cc2cccc(C3CCC(=O)NC3=O)n2)c2cc(C(=O)Nc3cc4[nH]c([C@H]5CCCN5C)cc4cn3)ccc12 (stereo partly drawn) [Example 62, 1-(9-(6-(2,6-dioxopiperidin-3-yl)pyridin-2-yl)non-8-yn-1-yl)-3-methyl-N-(2-((R)-1-methylpyrrolidin-2-yl)-1H-pyrrolo [3,2-c]pyridin-6-yl)-1H-indazole-6-carboxamide]
MLLT1% Degradation @ 0.01 μM: B (Category B: 50%≤B<75% degradation)
MLLT1% Degradation @ 0.1 μM: B (Category B: 50%≤B<75% degradation)
MLLT1% Degradation @ 1 μM: A (Category A: A≥75% degradation)

SMILES: Cc1nn(CCCCCCC2CCN(c3cccc(C(=O)N[C@H]4CCC(=O)NC4=O)n3)CC2)c2cc(C(=O)Nc3cc4[nH]c([C@H]5CCCN5C)cc4cn3)ccc12 [Example 73, 1-(6-(1-(6-(((S)-2,6-dioxopiperidin-3-yl)carbamoyl)pyridin-2-yl)piperidin-4-yl)hexyl)-3-methyl-N-(2-((R)-1-methylpyrrolidin-2-yl)-1H-pyrrolo[3,2-c]pyridin-6-yl)-1H-indazole-6-carboxamide]
MLLT1% Degradation @ 0.01 μM: B (Category B: 50%≤B<75% degradation)
MLLT1% Degradation @ 0.1 μM: A (Category A: A≥75% degradation)
MLLT1% Degradation @ 1 μM: A (Category A: A≥75% degradation)

Other lines, results leading:

MLLT1% Degradation @ 0.01 μM: A (Category A: A≥75% degradation)
MLLT1% Degradation @ 0.1 μM: A (Category A: A≥75% degradation)
MLLT1% Degradation @ 1 μM: A (Category A: A≥75% degradation)
SMILES: Cc1nn(CCCCCOCC#Cc2cccc3c2CN(C2CCC(=O)NC2=O)C3=O)c2cc(C(=O)Nc3cc4[nH]c([C@H]5CCCN5C)cc4cn3)ccc12 (stereo partly drawn) [Example 49, 1-(5-((3-(2-(2,6-dioxopiperidin-3-yl)-1-oxoisoindolin-4-yl)prop-2-yn-1-yl)oxy)pentyl)-3-methyl-N-(2-((R)-1-methylpyrrolidin-2-yl)-1H-pyrrolo[3,2-c]pyridin-6-yl)-1H-indazole-6-carboxamide]

MLLT1% Degradation @ 0.01 μM: A (Category A: A≥75% degradation)
MLLT1% Degradation @ 0.1 μM: A (Category A: A≥75% degradation)
MLLT1% Degradation @ 1 μM: A (Category A: A≥75% degradation)
SMILES: Cc1nn(CCOCCCCC#Cc2cccc3c2CN(C2CCC(=O)NC2=O)C3=O)c2cc(C(=O)Nc3cc4[nH]c([C@H]5CCCN5C)cc4cn3)ccc12 (stereo partly drawn) [Example 50, 1-(2-((6-(2-(2,6-dioxopiperidin-3-yl)-1-oxoisoindolin-4-yl)hex-5-yn-1-yl)oxy)ethyl)-3-methyl-N-(2-((R)-1-methylpyrrolidin-2-yl)-1H-pyrrolo[3,2-c]pyridin-6-yl)-1H-indazole-6-carboxamide]

MLLT1% Degradation @ 0.01 μM: C (Category C: 25%≤C<50% degradation)
MLLT1% Degradation @ 0.1 μM: B (Category B: 50%≤B<75% degradation)
MLLT1% Degradation @ 1 μM: A (Category A: A≥75% degradation)
SMILES: Cc1nn(CCCCCCCC#Cc2cccc(C(=O)N[C@H]3CCC(=O)NC3=O)c2F)c2cc(C(=O)Nc3cc4[nH]c([C@H]5CCCN5C)cc4cn3)ccc12 [Example 51, 1-(9-(3-(((S)-2,6-dioxopiperidin-3-yl)carbamoyl)-2-fluorophenyl)non-8-yn-1-yl)-3-methyl-N-(2-((R)-1-methylpyrrolidin-2-yl)-1H-pyrrolo[3,2-c]pyridin-6-yl)-1H-indazole-6-carboxamide]

MLLT1% Degradation @ 0.01 μM: C (Category C: 25%≤C<50% degradation)
MLLT1% Degradation @ 0.1 μM: B (Category B: 50%≤B<75% degradation)
MLLT1% Degradation @ 1 μM: A (Category A: A≥75% degradation)
SMILES: Cc1nn(CCCCCCCC#Cc2cc3c(cc2F)C(=O)N(C2CCC(=O)NC2=O)C3)c2cc(C(=O)Nc3cc4[nH]c([C@H]5CCCN5C)cc4cn3)ccc12 (stereo partly drawn) [Example 60, 1-(9-(2-(2,6-dioxopiperidin-3-yl)-6-fluoro-1-oxoisoindolin-5-yl)non-8-yn-1-yl)-3-methyl-N-(2-((R)-1-methylpyrrolidin-2-yl)-1H-pyrrolo[3,2-c]pyridin-6-yl)-1H-indazole-6-carboxamide]

MLLT1% Degradation @ 0.01 μM: D (Category D: D<25% degradation)
MLLT1% Degradation @ 0.1 μM: B (Category B: 50%≤B<75% degradation)
MLLT1% Degradation @ 1 μM: A (Category A: A≥75% degradation)
SMILES: Cc1nn(CCCCCCCC#Cc2cccc(N3CCC(=O)NC3=O)c2F)c2cc(C(=O)Nc3cc4[nH]c([C@H]5CCCN5C)cc4cn3)ccc12 [Example 63, (R)-1-(9-(3-(2,4-dioxotetrahydropyrimidin-1 (2H)-yl)-2-fluorophenyl)non-8-yn-1-yl)-3-methyl-N-(2-(1-methylpyrrolidin-2-yl)-1H-pyrrolo [3,2-c]pyridin-6-yl)-1H-indazole-6-carboxamide]

MLLT1% Degradation @ 0.01 μM: C (Category C: 25%≤C<50% degradation)
MLLT1% Degradation @ 0.1 μM: B (Category B: 50%≤B<75% degradation)
MLLT1% Degradation @ 1 μM: A (Category A: A≥75% degradation)
SMILES: Cc1nn(CCCCCCCC#Cc2cc3c(cc2F)c(N2CCC(=O)NC2=O)nn3C)c2cc(C(=O)Nc3cc4[nH]c([C@H]5CCCN5C)cc4cn3)ccc12 [Example 65, (R)-1-(9-(3-(2,4-dioxotetrahydropyrimidin-1 (2H)-yl)-5-fluoro-1-methyl-1H-indazol-6-yl)non-8-yn-1-yl)-3-methyl-N-(2-(1-methylpyrrolidin-2-yl)-1H-pyrrolo[3,2-c]pyridin-6-yl)-1H-indazole-6-carboxamide]
